Data set [1] concerns Hepatotoxicity. Description: Literature-mined compound from Fourches et al multi-species drug-induced liver injury (DILI) dataset, effect in non-rodents.
Data set [2] concerns Hepatotoxicity. Nature of the data set: Literature-mined compound from Fourches et al multi-species drug-induced liver injury (DILI) dataset, effect in humans. The note with it: human.
Data set [3] has as its system Hepatotoxicity. Description: Literature-mined compound from Fourches et al multi-species drug-induced liver injury (DILI) dataset, effect in rodents. Conditions: rodentia.

Structures are written as SMILES.

For the compound `C[C@H]1O[C@@H](O[C@H]2[C@@H](O)C[C@H](O[C@H]3[C@@H](O)C[C@H](O[C@H]4CC[C@@]5(C)[C@H](CC[C@@H]6[C@@H]5C[C@@H](O)[C@]5(C)[C@@H](C7=CC(=O)OC7)CC[C@]65O)C4)O[C@@H]3C)O[C@@H]2C)C[C@H](O)[C@@H]1O` [DIGOXIN], the Hepatotoxicity entry is “drug-induced liver injury reported” in the data set with Hepatotoxicity [1], “no drug-induced liver injury reported” in the data set on Hepatotoxicity [2] and “drug-induced liver injury reported” in the data set on Hepatotoxicity [3].
Regarding `CN1CCN(C2=Nc3cc(Cl)ccc3Nc3ccccc32)CC1` [CLOZAPINE], the Hepatotoxicity entry in the data set on Hepatotoxicity [1] was “no drug-induced liver injury reported”; in the data set with Hepatotoxicity [2] it was “drug-induced liver injury reported”; in the data set on Hepatotoxicity [3], “no drug-induced liver injury reported”.
Regarding `C=C/C=C\[C@H](C)[C@H](OC(N)=O)[C@@H](C)[C@H](O)[C@@H](C)C/C(C)=C\[C@H](C)[C@@H](O)[C@@H](C)/C=C\[C@@H](O)C[C@@H]1OC(=O)[C@H](C)[C@@H](O)[C@H]1C` [DISERMOLIDE], the values for the Hepatotoxicity result in the data set with Hepatotoxicity [1], in the data set with Hepatotoxicity [2] and in the data set on Hepatotoxicity [3] were “no drug-induced liver injury reported”, “drug-induced liver injury reported” and “no drug-induced liver injury reported”, respectively.
For the compound `CC(C)NCC(O)COc1cccc2ccccc12` (stereo not drawn) [PROPRANOLOL], the Hepatotoxicity entry in the data set with Hepatotoxicity [1], with Hepatotoxicity [2] and in the data set on Hepatotoxicity [3] was “drug-induced liver injury reported” in each case.
Turning to `C[C@H]1O[C@H](O[C@H]2[C@H](O)[C@@H](O)[C@@H](O[C@H]3[C@H](O)[C@@H](O)C(O)O[C@@H]3CO)O[C@@H]2CO)[C@H](O)[C@@H](O)[C@@H]1N[C@H]1C=C(CO)[C@@H](O)[C@H](O)[C@H]1O` (stereo partly drawn) [ACARBOSE], the Hepatotoxicity result is “no drug-induced liver injury reported” with Hepatotoxicity [1], “drug-induced liver injury reported” with Hepatotoxicity [2] and “drug-induced liver injury reported” in the data set on Hepatotoxicity [3].
Take `CC[C@H]1OC(=O)[C@H](C)C(=O)[C@H](C)[C@@H](O[C@@H]2O[C@H](C)C[C@H](N(C)C)[C@H]2O)[C@](C)(OC)C[C@@H](C)C(=O)[C@H](C)[C@H]2N(CCCCn3cnc(-c4cccnc4)c3)C(=O)O[C@]12C` [TELITHROMYCIN]: the Hepatotoxicity entry in the data set with Hepatotoxicity [1] (Liver) is given as “no drug-induced liver injury reported”; in the data set on Hepatotoxicity [2] (Liver), “drug-induced liver injury reported”; in the data set on Hepatotoxicity [3] (Liver) it was “drug-induced liver injury reported”.
In the case of `CC(N)=O` [ACETAMIDE], the values for the Hepatotoxicity result in the data set on Hepatotoxicity [1], in the data set on Hepatotoxicity [2] and in the data set on Hepatotoxicity [3] were “no drug-induced liver injury reported”, “no drug-induced liver injury reported” and “drug-induced liver injury reported”, respectively.
Regarding `COc1ccnc(C[S+]([O-])c2nc3ccc(OC(F)F)cc3[nH]2)c1OC` (stereo not drawn) [PANTOPRAZOLE], the figures for the Hepatotoxicity entry with Hepatotoxicity [1], in the data set on Hepatotoxicity [2] and in the data set on Hepatotoxicity [3] were “no drug-induced liver injury reported”, “drug-induced liver injury reported” and “no drug-induced liver injury reported”, respectively.
For `O=C(O)COc1ccc(C(=O)c2cccs2)c(Cl)c1Cl`, the values for the Hepatotoxicity result with Hepatotoxicity [1], in the data set with Hepatotoxicity [2] and with Hepatotoxicity [3] were “no drug-induced liver injury reported”, “drug-induced liver injury reported” and “drug-induced liver injury reported”, respectively.
Turning to `CO[C@@H]1[C@H](OC(=O)NC(=O)CCl)CC[C@]2(CO2)[C@H]1[C@@]1(C)O[C@@H]1CC=C(C)C` [O-CHLOROACETYLCARBAMOYLFUMAGILLOL], the Hepatotoxicity entry in the data set with Hepatotoxicity [1] is recorded as “drug-induced liver injury reported”; in the data set on Hepatotoxicity [2] it was “no drug-induced liver injury reported”; in the data set on Hepatotoxicity [3], “drug-induced liver injury reported”.
For the compound `CCOC(=O)/C=C(C)/C=C/C=C(C)/C=C/c1c(C)cc(OC)c(C)c1C` [ETRETINATE], the Hepatotoxicity result is given as “no drug-induced liver injury reported” with Hepatotoxicity [1], “drug-induced liver injury reported” with Hepatotoxicity [2] and “no drug-induced liver injury reported” in the data set with Hepatotoxicity [3].
For the compound `CC#CCC(C)[C@H](O)/C=C/[C@@H]1[C@H]2C/C(=C/CCCC(=O)O)C[C@H]2C[C@H]1O` (stereo partly drawn) [ILOPROST], the Hepatotoxicity result in the data set with Hepatotoxicity [1] was “no drug-induced liver injury reported”; with Hepatotoxicity [2], “no drug-induced liver injury reported”; in the data set with Hepatotoxicity [3], “drug-induced liver injury reported”.
As to `CCCCC1=NC2(CCCC2)C(=O)N1Cc1ccc(-c2ccccc2-c2nnn[nH]2)cc1` [IRBESARTAN], the Hepatotoxicity result is “no drug-induced liver injury reported” in the data set on Hepatotoxicity [1], “drug-induced liver injury reported” in the data set with Hepatotoxicity [2] and “drug-induced liver injury reported” in the data set with Hepatotoxicity [3].
For `Oc1ncnc2[nH]ncc12` [ALLOPURINOL], the Hepatotoxicity result was “no drug-induced liver injury reported” in the data set with Hepatotoxicity [1], “drug-induced liver injury reported” in the data set on Hepatotoxicity [2] and “drug-induced liver injury reported” with Hepatotoxicity [3].
Consider `CCCCOCN(C(=O)CCl)c1c(CC)cccc1CC` [BUTACHLOR], for which the Hepatotoxicity entry in the data set with Hepatotoxicity [1] is given as “no drug-induced liver injury reported”; with Hepatotoxicity [2], “no drug-induced liver injury reported”; in the data set on Hepatotoxicity [3], “drug-induced liver injury reported”.
Turning to `CO[C@H]1C[C@@H]2CC[C@@H](C)[C@@](O)(O2)C(=O)C(=O)N2CCCC[C@H]2C(=O)O[C@H]([C@H](C)C[C@@H]2CC[C@@H](O)[C@H](OC)C2)CC(=O)[C@H](C)/C=C(\C)[C@@H](O)[C@@H](OC)C(=O)[C@H](C)C[C@H](C)/C=C/C=C/C=C/1C` [SIROLIMUS], the Hepatotoxicity entry is “no drug-induced liver injury reported” in the data set on Hepatotoxicity [1], “drug-induced liver injury reported” in the data set on Hepatotoxicity [2] and “drug-induced liver injury reported” in the data set with Hepatotoxicity [3].
As to `COc1cc(NS(=O)(=O)c2ccc(N)cc2)nc(OC)n1` [SULFADIMETHOXINE], the Hepatotoxicity result in the data set with Hepatotoxicity [1] is listed as “no drug-induced liver injury reported”; with Hepatotoxicity [2] it was “drug-induced liver injury reported”; in the data set with Hepatotoxicity [3], “no drug-induced liver injury reported”.
As for `CCOc1ccc2nc(S(N)(=O)=O)sc2c1` [ETHOXZOLAMIDE], the Hepatotoxicity entry with Hepatotoxicity [1] is “no drug-induced liver injury reported”; in the data set on Hepatotoxicity [2] it was “no drug-induced liver injury reported”; in the data set with Hepatotoxicity [3], “drug-induced liver injury reported”.
Consider `CC1(C)S[C@@H]2[C@H](NC(=O)[C@H](NC(=O)N3CCNC3=O)c3ccccc3)C(=O)N2[C@H]1C(=O)O` [AZLOCILLIN], for which the Hepatotoxicity result in the data set with Hepatotoxicity [1] is “no drug-induced liver injury reported”; in the data set on Hepatotoxicity [2], “drug-induced liver injury reported”; in the data set on Hepatotoxicity [3], “no drug-induced liver injury reported”.
Turning to `CCC1(CCC(C)C)C(=O)NC(=O)NC1=O` [AMOBARBITAL], the figures for the Hepatotoxicity entry in the data set with Hepatotoxicity [1], with Hepatotoxicity [2] and with Hepatotoxicity [3] were “no drug-induced liver injury reported”, “no drug-induced liver injury reported” and “drug-induced liver injury reported”, respectively.
Turning to `CC(C)c1cccc(C(C)C)c1O` [PROPOFOL], the Hepatotoxicity result in the data set on Hepatotoxicity [1] (Liver), in the data set with Hepatotoxicity [2] (Liver) and in the data set with Hepatotoxicity [3] (Liver) was “drug-induced liver injury reported” each time.

The values are drawn from ChEMBL document CHEMBL1697731, “Cheminformatics analysis of assertions mined from literature that describe drug-induced liver injury in different species” (Chem Res Toxicol, 2010).
